Laboratory results as given in patent US4629737A, “Secondary amines and use in pharmaceutical compositions” (Beecham Group p.l.c., priority 1982, dated 1986).
Counter-ions that a name gives are not always drawn. Like-named read-outs stand apart in the source and are kept apart here.

Legend:
blood glucose = experiment: Hypoglycaemic activity: reduction in area under blood glucose curve after glucose load; type: in vivo, Female CFLP mice; conditions: Mus musculus
Experimental: Female CFLP mice, weighing approximately 25 g, were fasted for 24 hours prior to the study. The compounds under study were administered orally as an aqueous solution to each of 6 mice. 30 minutes later a blood sample (10 μl) was obtained from the tail for the analysis of blood glucose. Immediately after taking this blood sample, glucose (1 g/Kg body weight) was administered subcutaneously to each mouse. 6 mice were given water as a control. Blood samples were then obtained from each mouse at 30 minute intervals for 120 minutes.
Compounds that produced a significant (P<0.05) reduction of blood glucose, compared with control mice given water, at any time interval, were considered active. The area under the blood glucose curve over the 2 hour period after the administration of the glucose was calculated for each compound and compared with the value for control animals.

[1] = Effect on energy expenditure of mice; type: in vivo, Female CFLP mice; conditions: Mus musculus; for response vs control in vivo at 21 mg/kg: 21.0 mg/kg po
Experimental: Female CFLP mice, each weighing approximately 24 g were given food and water ad lib before and during the experiment. The compounds were dissolved in water by addition of one mole of hydrochloric acid per mole of compound and these solutions were administered orally to each of 12 mice. A further 12 mice were dosed orally with water. The mice were placed in boxes through which air was drawn and the oxygen content of the air leaving the boxes was measured. The energy expenditure of the mice was calculated for 21 hours after dosing from the volume of air leaving the boxes and its oxygen content, following the principles described by J. B. de V. Weir, J. Physiol. (London), 109, 1-9 (1949).

[2] = 2.5 μmol/Kg oral, 2 h after glucose 1 g/Kg s.c., vs control, read-out: % Reduction in area under Blood Glucose Curve
[3] = po, 21 h, read-out: Mean Energy Expenditure (0-21 h)
[4] = 12.5 μmol/Kg oral, 2 h after glucose 1 g/Kg s.c., vs control, read-out: % Reduction in area under Blood Glucose Curve
[5] = po, 2 h, read-out: % Reduction in area under Blood Glucose Curve
[6] = po, 3 h, read-out: Mean Energy Expenditure (0-3 h)
[7] = 25.1 mg/kg po, 0-3 h, read-out: Mean Energy Expenditure (0-3 h)
[8] = 25 μmol/Kg oral, 2 h after glucose 1 g/Kg s.c., vs control, read-out: % Reduction in area under Blood Glucose Curve

Compound `COC(CNC(C)Cc1ccc(OCCN(C)C)cc1)c1cccc(Cl)c1` (stereo not drawn) [Example 23, N-[2-(4-(2-Dimethylaminoethoxy)phenyl)-1-methylethyl]-2-methoxy-2-(3-chlorophenyl)ethanamine dihydrochloride hemihydrate] has an inhibition in vivo at 2.5 µmol/kg (blood glucose; [2]) of 35%, a response vs control in vivo at 23.7 mg/kg [1, 3] of 130% and a response vs control in vivo at 23.7 mg/kg ([1]; 23.7 mg/kg po, 0-3 h, read-out: Mean Energy Expenditure (0-3 h)) of 163%.

`COC(CNC(C)Cc1ccc(OCCN)cc1)c1cccc(Cl)c1` (stereo not drawn) [Example 24, N-[2-(4-(2-Aminoethoxy)phenyl)-1-methylethyl]-2-methoxy-2-(3-chlorophenyl)ethanamine dihydrochloride hemihydrate] gave an inhibition in vivo at 12.5 µmol/kg (blood glucose; [4]) of 51%, a response vs control in vivo at 22.3 mg/kg [1, 3] of 128% and a response vs control in vivo at 22.3 mg/kg ([1]; 22.3 mg/kg po, 0-3 h, read-out: Mean Energy Expenditure (0-3 h)) of 147%.

`CCCOC(CNC(C)Cc1ccc(OCC(=O)OC)cc1)c1cccc(Cl)c1` (stereo not drawn) [Example 25, N-[2-(4-Carbomethoxymethoxyphenyl)-1-methylethyl]-2-^n-propoxy-2-(3-chlorophenyl)ethanamine hydrochloride] gave an inhibition in vivo at 12.5 µmol/kg (blood glucose; [4]) of 53.5%, a response vs control in vivo at 22.8 mg/kg ([1]; 22.8 mg/kg po, 0-3 h, read-out: Mean Energy Expenditure (0-3 h)) of 137% and a response vs control in vivo at 22.8 mg/kg ([1]; 22.8 mg/kg po, 0-21 h, read-out: Mean Energy Expenditure (0-21 h)) of 105%.

`COC(=O)COc1ccc(CC(C)NCC(OC(C)C)c2cccc(Cl)c2)cc1` (stereo not drawn) [Example 26, N-[2-(4-Carbomethoxymethoxyphenyl)-1-methylethyl]-2-isopropoxy-2-(3-chlorophenyl)ethanamine hydrochloride] gave an inhibition in vivo at 2.5 µmol/kg (blood glucose; [5]) of 45%, a response vs control in vivo at 22.8 mg/kg [1, 6] of 122% and a response vs control in vivo at 22.8 mg/kg [1, 3] of 103%.

`CCCOC(CNC(C)Cc1ccc(OCC(=O)NC)cc1)c1cccc(Cl)c1` (stereo not drawn) [Example 27, N-[2-(4-Methylaminocarbonylmethoxyphenyl)-1-methylethyl]-2-^n propoxy-2-(3-chlorophenyl)ethanamine dihydrochloride hemihydrate] gave an inhibition in vivo at 2.5 µmol/kg (blood glucose; [2]) of 52%, a response vs control in vivo at 25.1 mg/kg [1, 3] of 115% and a response vs control in vivo at 25.1 mg/kg [1, 7] of 143%.

In the case of `CNC(=O)COc1ccc(CC(C)NCC(OC(C)C)c2cccc(Cl)c2)cc1` (stereo not drawn) [Example 28, N-[2-(4-Methylaminocarbonylmethoxyphenyl)-1-methylethyl]-2-isopropoxy-2-(3-chlorophenyl)ethanamine dihydrochloride hemihydrate], the inhibition in vivo at 2.5 µmol/kg (blood glucose; [2]) is reported as 55%, the response vs control in vivo at 25.1 mg/kg [1, 7] is reported as 132% and the response vs control in vivo at 25.1 mg/kg ([1]; 25.1 mg/kg po, 0-21 h, read-out: Mean Energy Expenditure (0-21 h)) is reported as 113%.

For `CNC(=O)c1ccc(CC(C)NCC(OC)c2cccc(Cl)c2)cc1` (stereo not drawn) [Example 30, N-[2-(4-N'-Methylcarboxamidophenyl)-1-methylethyl]-2-methoxy-2-(3-chlorophenyl)ethanamine hydrochloride], the inhibition in vivo at 12.5 µmol/kg (blood glucose; [4]) was 26.5%, the response vs control in vivo at 19.9 mg/kg [1, 3] was 115% and the response vs control in vivo at 19.9 mg/kg ([1]; 19.9 mg/kg po, 0-3 h, read-out: Mean Energy Expenditure (0-3 h)) was 119%.

`COC(CNC(C)Cc1ccc(CO)cc1)c1cccc(Cl)c1` (stereo not drawn) [Example 31, N-[2-(4-Hydroxymethylphenyl)-1-methylethyl]-2-methoxy-2-(3-chlorophenyl)ethanamine hydrochloride] showed an inhibition in vivo at 12.5 µmol/kg (blood glucose; [5]) of 29%, a response vs control in vivo at 18.5 mg/kg [1, 6] of 103% and a response vs control in vivo at 18.5 mg/kg [1, 3] of 126%.

`CCOC(CNC(C)Cc1ccc(C(=O)OC)cc1)c1cccc(Cl)c1` (stereo not drawn) [Example 33, N-[2-(4-Carbomethoxyphenyl)-1-methylethyl]-2-ethoxy-2-(3-chlorophenyl)ethanamine hydrochloride hemihydrate] showed an inhibition in vivo at 25 µmol/kg (blood glucose; [8]) of 52%, a response vs control in vivo at 21.1 mg/kg [1, 3] of 122% and a response vs control in vivo at 21.1 mg/kg ([1]; 21.1 mg/kg po, 0-3 h, read-out: Mean Energy Expenditure (0-3 h)) of 148%.

With `CCOC(CNC(C)Cc1ccc(C(=O)NC)cc1)c1cccc(Cl)c1` (stereo not drawn) [Example 34, N-[2-(4-N'-Methylcarboxamidophenyl)-1-methylethyl]-2-ethoxy-2-(3-chlorophenyl)ethanamine hydrochloride] the inhibition in vivo at 25 µmol/kg (blood glucose; [8]) was 34%, the response vs control in vivo at 20.6 mg/kg [1, 3] was 116% and the response vs control in vivo at 20.6 mg/kg ([1]; 20.6 mg/kg po, 0-3 h, read-out: Mean Energy Expenditure (0-3 h)) was 148%.

With `CNCc1ccc(CC(C)NCC(OC)c2cccc(Cl)c2)cc1` (stereo not drawn) [Example 35, N-[2-(4-N'-Methylaminomethylphenyl)-1-methylethyl]-2-methoxy-2-(3-chlorophenyl)ethanamine dihydrochloride] the inhibition in vivo at 12.5 µmol/kg (blood glucose; [4]) was 10%, the response vs control in vivo at 21 mg/kg ([1]; 0-3 h, read-out: Mean Energy Expenditure (0-3 h)) was 124% and the response vs control in vivo at 21 mg/kg ([1]; 0-21 h, read-out: Mean Energy Expenditure (0-21 h)) was 123%.

For `COC(=O)COc1ccc(CC(C)NCC(OC)c2cc3ccccc3o2)cc1` (stereo not drawn) [Example 36, N-[2-(4-Carbomethoxymethoxyphenyl)-1-methylethyl]-2-methoxy-2-(2-benzofuranyl)ethanamine hydrochloride], the inhibition in vivo at 2.5 µmol/kg (blood glucose; [5]) was 30%, the response vs control in vivo at 21.6 mg/kg [1, 6] was 131% and the response vs control in vivo at 21.6 mg/kg [1, 3] was 104%.

Compound `CNC(=O)COc1ccc(CC(C)NCC(OC)c2cc3ccccc3o2)cc1` (stereo not drawn) [Example 37, N-[2-(4-Methylaminocarbonylmethoxyphenyl)-1-methylethyl]-2-methoxy-2-(2-benzofuranyl)ethanamine dihydrochloride] has an inhibition in vivo at 1 µmol/kg (blood glucose; [5]) of 26%, a response vs control in vivo at 23.6 mg/kg [1, 6] of 134% and a response vs control in vivo at 23.6 mg/kg [1, 3] of 106%.

With `COc1cccc(CC(C)NCC(OC)c2cccc(Cl)c2)c1` (stereo not drawn) [Example 39, N-[2-(3-Methoxyphenyl)-1-methylethyl]-2-methoxy-2-(3-chlorophenyl)ethanamine hydrochloride] the inhibition in vivo at 25 µmol/kg (blood glucose; [5]) was 15%, the response vs control in vivo at 18.5 mg/kg [1, 6] was 130% and the response vs control in vivo at 18.5 mg/kg [1, 3] was 103%.

Compound `COC(CNC(C)Cc1ccc(SC(C)C)cc1)c1cccc(Cl)c1` (stereo not drawn) [Example 40, N-[2-(4-Isopropylthiophenyl)-1-methylethyl]-2-methoxy-2-(3-chlorophenyl)ethanamine hydrochloride] has an inhibition in vivo at 12.5 µmol/kg (blood glucose; [5]) of 31%, a response vs control in vivo at 20.7 mg/kg [1, 6] of 128% and a response vs control in vivo at 20.7 mg/kg [1, 3] of 111%.

For `COC(CNC(C)Cc1ccc(N(C)C)cc1)c1cccc(Cl)c1` (stereo not drawn) [Example 41, N-[2-(4-Dimethylaminophenyl)-1-methylethyl]-2-methoxy-2-(3-chlorophenyl)ethanamine dihydrochloride hemihydrate], the inhibition in vivo at 12.5 µmol/kg (blood glucose; [5]) was 45%, the response vs control in vivo at 21.4 mg/kg [1, 6] was 107% and the response vs control in vivo at 21.4 mg/kg [1, 3] was 116%.

Work on `CCCCOC(CNC(C)Cc1ccc(OCC(=O)OC)cc1)c1cccc(Cl)c1` (stereo not drawn) [Example 42, N-[2-(4-Carbomethoxymethoxyphenyl)-1-methylethyl]-2-^n butoxy-2-(3-chlorophenyl)ethanamine hydrochloride] yielded an inhibition in vivo at 5 µmol/kg (blood glucose; 5 μmol/Kg oral, 2 h after glucose 1 g/Kg s.c., vs control, read-out: % Reduction in area under Blood Glucose Curve) of 37%, a response vs control in vivo at 23.5 mg/kg [1, 3] of 114% and a response vs control in vivo at 23.5 mg/kg ([1]; 23.5 mg/kg po, 0-3 h, read-out: Mean Energy Expenditure (0-3 h)) of 158%.

`CCCCOC(CNC(C)Cc1ccc(OCC(=O)NC)cc1)c1cccc(Cl)c1` (stereo not drawn) [Example 43, N-[2-(4-Methylaminocarbonylmethoxyphenyl)-1-methylethyl]-2-^n butoxy-2-(3-chlorophenyl)ethanamine hydrochloride hemihydrate] showed an inhibition in vivo at 2.5 µmol/kg (blood glucose; [2]) of 31%, a response vs control in vivo at 24.2 mg/kg ([1]; 24.2 mg/kg po, 0-3 h, read-out: Mean Energy Expenditure (0-3 h)) of 144% and a response vs control in vivo at 24.2 mg/kg ([1]; 24.2 mg/kg po, 0-21 h, read-out: Mean Energy Expenditure (0-21 h)) of 105%.

`CCCCCCOC(CNC(C)Cc1ccc(OCC(=O)OC)cc1)c1cccc(Cl)c1` (stereo not drawn) [Example 44, N-[2-(4-Carbomethoxymethoxyphenyl)-1-methylethyl]-2-^n hexyloxy-2-(3-chlorophenyl)ethanamine hydrochloride] showed an inhibition in vivo at 7.5 µmol/kg (blood glucose; 7.5 μmol/Kg oral, 2 h after glucose 1 g/Kg s.c., vs control) of 34%, a response vs control in vivo at 24.9 mg/kg [1, 6] of 145% and a response vs control in vivo at 24.9 mg/kg ([1]; 24.9 mg/kg po, 0-21 h, read-out: Mean Energy Expenditure (0-21 h)) of 101%.

For `CNCCOc1ccc(CC(C)NCC(OC)c2cccc(C(F)(F)F)c2)cc1` (stereo not drawn) [Example 46, N-[2-(4-(2-Methylaminoethoxy)phenyl)-1-methylethyl]-2-methoxy-2-(3-trifluoromethylphenyl)ethanamine dihydrochloride], the inhibition in vivo at 5 µmol/kg (blood glucose; [5]) was 20%, the response vs control in vivo at 24.2 mg/kg [1, 6] was 122% and the response vs control in vivo at 24.2 mg/kg [1, 3] was 104%.
